Data as given in US20150202219A1, “NEUROPROTECTION FROM BRAIN ANOXIA AND REPERFUSION INJURY DURING STROKE AND COMPOSITIONS OF PKG PATHWAY ACTIVATORS AND METHOD OF USE THEREOF” (Florida Atlantic University, priority 2010, published 2015).

What was measured:
[1] = target: T1, phosphodiesterase-5 (PDE-5) (Mus musculus, UniProt Q8CG03); details: mice; 1.4-mg/kg intraperitoneal injections daily for 8 days; cited from earlier work
T1 construct: Sildenafil (Viagra) was administered to mice, 1.4-mg/kg intraperitoneal injections daily for 8 days; host or cells: mice in vivo (brain neurons under hypoxia)

[2] = test system: adult Drosophila melanogaster; assay: Time to anoxic coma onset (locomotion failure) during acute hypoxia after volatilized drug treatment; assay type: in vivo; details: adult sitter flies; single agent volatilized from 10 uL DMSO for 1 hr; 1 mM KT5823, 1 mM Cantharidin, 200 mM DCA, 10 mM 8-Bromo cGMP, 10 mM T-0156; argon displacement; Dunn's p<0.05
Experimental: Using both genetics and pharmacology, the roles and order of function of additional cGMP-dependent signaling molecules in modulating acute low-oxygen sensitivity of locomotory failure were examined. To do this, we imposed acute hypoxia (<0.2% O2 within 5 min) by displacing environmental oxygen with the inert gas argon and then measured time to failure of locomotion (anoxic coma), which can be observed in less than 2% atmospheric oxygen (Haddad, 2000). We also used a novel but reliable method of pharmacological volatilization as a means to manipulate, in vivo, the activity of target enzymes and molecules such as PKG. Flies were frozen immediately after each trial, and heads were dissected and examined for PKG activity, as an indicator for activity levels in the brain (Belay et al., 2007; Kaun et al., 2007b). Lastly, using adult flies we tested what has been previously shown in embryos and larva (Wingrove and O'Farrell, 1999), the effect of prolonged anoxia (6 hours) on animal survival, after a 24 hour recovery.
Ten flies (separated into males or females) from each of the three strains (rover [for^R], sitter [for^s] and for^s2) were selected and placed in three separate vials with food at least 24 hours before each experiment. At the time of the experiment, flies were emptied into 10 mL empty test vials covered with permeable sponge caps of equivalent thickness, allowing for consistent gas exchange. These test vials were then placed into a 600 mL beaker which was covered with parafilm, creating a closed chamber with an escape hole in the parafilm (1 cm diameter). The purpose of this hole is to allow the lighter normal air (compared to argon which is heavier) to escape from the top of the beaker. The parafilm top was punctured with a needle connected to a gas tank (by a plastic hose), through which the inert gas argon was expelled. Preliminary work was done with pure nitrogen, where no significant differences between the uses of the two gases were observed (data not shown).
The needle tip was fastened to the bottom of the beaker and inserted into a larger sponge of similar texture to the vial sponge caps to ensure that gas expelled from the needle was dispersed equally throughout the beaker. […]
The experiment required exposing the test vials with 10 flies in a vial within the container to pure argon gas expelled from the tank at a flow rate of 600 cc/min±5%. Time of behavioral failure was recorded by observing the fly undergo a seizure, which was quickly followed by an anoxic coma. […] The program recorded these times of failure for each individual fly within the vials and then computed an average failure time for each vial (each vial has 10 flies but gives an average value for N=1). […]

PKG = PKG enzyme activity assay on heads of treated flies; assay type: biochemical, Drosophila melanogaster; details: heads of animals from FIG. 4a experiments; N=6 for each treatment; SNK
Experimental: PKG enzyme activity assays were conducted according to the procedure outlined in Kaun et al. (2007)(Kaun et al., 2007b). Adult Drosophila were decapitated and the heads were homogenized in 25 mM 1-1 Tris (pH 7.4), 1 mM 1-1 EDTA, 2 mM 1-1 EGTA, 5 mM 1-1 β-mercaptoethanol, 0.05% Triton X-100 and protease inhibitor solution (Roche Diagnostics). Following microcentrifugation for 5 min, the supernatant was removed and those supernatants containing equal amounts of total protein were examined for PKG enzyme activity. The reaction mixture contained the following substances: 40 mM 1-1 Tris-HCl (pH 7.4), 20 mM 1-1 magnesium acetate, 0.2 mM 1-1 [γ^32P]ATP (500-1000 c.p.m. pmol-1), 113 mg ml-1 heptapeptide (RKRSRAE), 3 mM 1-1 cGMP and a highly specific inhibitor of cAMP-dependent protein kinase. The next step of the procedure involved incubating the reaction mixtures at a temperature of 30° C. for 10 min, followed by ending the reaction by spotting 70 μl of the reaction mixture onto Whatman P-81 filters. To remove any unreacted [γ^32P]ATP, these spots were then soaked with 75 mM 1-1 H3PO4 for 5 min and washed three times with 75 mM 1-1 H3PO4. Before quantifying enzyme activity, filters were rinsed with 100% ethanol and air dried. To calculate PKG enzyme activity, counts were taken in a Wallac 1409 Liquid Scintillation Counter using universal scintillation cocktail (ICN). PKG activity was presented in the figures as pmol of ^32P incorporated into the substrate min-1 mg-1 protein.

NT-3 = details: cited from earlier work
protein phosphatase = details: cited from earlier work

## CCCc1nn(C)c2c(=O)[nH]c(-c3cc(S(=O)(=O)N4CCN(C)CC4)ccc3OCC)nc12 [Sildenafil, sildenafil]
[1]
  neuron apoptosis during hypoxia: reduces neuron apoptosis

## COC(=O)[C@@]1(OC)C[C@H]2O[C@]1(C)n1c3ccccc3c3c4c(c5c6ccccc6n2c5c31)C(=O)N(C)C4 [KT5823]
[2]
  anoxic coma onset sensitivity (time to failure) vs sham control: significant resilience to anoxic coma
PKG
  PKG enzyme activity levels in heads compared to sham control: significant effects compared to that of the sham control
NT-3
  neurotrophin (NT-3) activity: potentiation of NT-3

## COC(=O)c1c(-c2cc(OC)c(OC)c(OC)c2)c2ccnc(OCc3ncccn3)c2c(=O)n1Cc1ccnc(C)c1 [T-0156]
[2]
  anoxic coma onset sensitivity (time to failure) vs sham control: significant sensitivity to anoxic coma
PKG
  PKG enzyme activity levels in heads compared to sham control: significant effects compared to that of the sham control

## C=C1[C@@H](O)[C@@H]2O[C@]3(CC[C@H](/C=C/[C@@H](C)[C@@H]4CC(C)=C[C@@]5(O[C@H](C[C@@](C)(O)C(=O)O)CC[C@H]5O)O4)O3)CC[C@H]2O[C@@H]1[C@@H](O)C[C@H](C)[C@H]1O[C@@]2(CCCCO2)CC[C@H]1C [Okadaic acid]
Protein phosphatase
  nerve cell death: increase nerve cell death

## Nc1nc2c(nc(Br)n2[C@@H]2O[C@@H]3COP(=O)(O)O[C@H]3[C@H]2O)c(=O)[nH]1 [8-Bromo cGMP, 8-Bromo-cGMP]
[2]
  anoxic coma onset sensitivity (time to failure) vs sham control: significant sensitivity to anoxic coma
PKG
  PKG enzyme activity levels in heads compared to sham control: significant effects compared to that of the sham control

## C[C@@]12C(=O)OC(=O)[C@]1(C)[C@H]1CC[C@@H]2O1 [Cantharidin]
[2]
  anoxic coma onset sensitivity (time to failure) vs sham control: significant resilience to anoxic coma
PKG
  PKG enzyme activity levels in heads compared to sham control: no significant effects on PKG enzyme activity levels
